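Results reflect a 48-hour exposure of cells in 96-well plates to compound at five concentrations. GI50 is the concentration that inhibits growth by half.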 Calls of active or inactive are those of the source. Rule as the data show it: active = GI50 up to about 1.1 µM and inactive = higher.
Assays:
Assay in all cases: NCI tumour cell line growth inhibition, 48 h
SF-539 = tested on: SF-539
NCI-H460 = tested on: NCI-H460
UO-31 = tested on: UO-31
SN12C = tested on: SN12C
SK-MEL-2 = tested on: SK-MEL-2
SR = tested on: SR
SW-620 = tested on: SW-620
HL-60 = tested on: HL-60
LOX IMVI = tested on: LOX IMVI
SNB-75 = tested on: SNB-75
A549 = tested on: A549
HCC 2998 = tested on: HCC 2998
OVCAR-3 = tested on: OVCAR-3
786-0 = tested on: 786-0
SK-MEL-5 = tested on: SK-MEL-5
EKVX = tested on: EKVX
RXF 393 = tested on: RXF 393
NCI/ADR-RES = tested on: NCI/ADR-RES
MCF7 = tested on: MCF7

Measured: GI50

O=[N+]([O-])c1cccc(/C=N\NS(=O)(=O)c2ccc(Cl)cc2)c1O
inactive: SF-539 54.2 µM | NCI-H460 82.8 µM | UO-31 67.3 µM | SN12C > 100 µM | SK-MEL-2 76.6 µM | SR 18.7 µM | SW-620 > 100 µM | HL-60 46.9 µM | LOX IMVI > 100 µM | SNB-75 > 100 µM | A549 > 100 µM | HCC 2998 > 100 µM | OVCAR-3 65.8 µM | 786-0 > 100 µM | SK-MEL-5 73.1 µM | EKVX > 100 µM | RXF 393 37.8 µM

Cc1ccccc1-n1c(=O)c2ncn(CCCl)c2n(-c2ccccc2C)c1=S
inactive: SF-539 > 100 µM | NCI/ADR-RES > 100 µM | NCI-H460 > 100 µM | UO-31 > 100 µM | SN12C > 100 µM | SK-MEL-2 > 100 µM | SR > 100 µM | SW-620 > 100 µM | MCF7 > 100 µM | HL-60 > 100 µM | LOX IMVI > 100 µM | SNB-75 > 100 µM | A549 > 100 µM | HCC 2998 > 100 µM | OVCAR-3 > 100 µM | 786-0 > 100 µM | SK-MEL-5 > 100 µM | EKVX > 100 µM | RXF 393 > 100 µM

NNC(=O)CCC(=O)Nc1ccc(Cl)cc1Cl
inactive: SF-539 > 100 µM | NCI-H460 > 100 µM | UO-31 > 100 µM | SN12C > 100 µM | SK-MEL-2 54.6 µM | SR 6.68 µM | SW-620 > 100 µM | HL-60 94.4 µM | LOX IMVI 43.8 µM | SNB-75 > 100 µM | A549 > 100 µM | HCC 2998 > 100 µM | OVCAR-3 > 100 µM | 786-0 > 100 µM | SK-MEL-5 > 100 µM | RXF 393 > 100 µM

C[P+](C)(C)c1ccccc1
inactive: SF-539 > 100 µM | NCI-H460 > 100 µM | UO-31 > 100 µM | SN12C > 100 µM | SK-MEL-2 > 100 µM | SR > 100 µM | SW-620 > 100 µM | HL-60 > 100 µM | LOX IMVI > 100 µM | SNB-75 > 100 µM | A549 > 100 µM | HCC 2998 > 100 µM | OVCAR-3 > 100 µM | 786-0 > 100 µM | SK-MEL-5 > 100 µM | EKVX > 100 µM | RXF 393 > 100 µM

O=C1CCC(=O)c2cc(Br)ccc2N1
inactive: SF-539 > 100 µM | NCI-H460 > 100 µM | UO-31 > 100 µM | SN12C > 100 µM | SK-MEL-2 > 100 µM | SR 26.4 µM | SW-620 > 57.8 µM | HL-60 > 100 µM | LOX IMVI > 96.6 µM | SNB-75 > 100 µM | A549 98.6 µM | HCC 2998 > 100 µM | OVCAR-3 > 100 µM | 786-0 > 100 µM | SK-MEL-5 > 100 µM | EKVX > 63.2 µM | RXF 393 > 74.1 µM

NC(=O)Nc1ccc(S(=O)(=O)Nc2ccc(S(N)(=O)=O)cc2)cc1
inactive: NCI/ADR-RES > 100 µM | NCI-H460 > 100 µM | UO-31 > 100 µM | SN12C > 100 µM | SK-MEL-2 > 100 µM | SW-620 > 100 µM | MCF7 > 100 µM | LOX IMVI > 100 µM | A549 > 100 µM | OVCAR-3 > 100 µM | 786-0 > 100 µM | SK-MEL-5 > 100 µM | EKVX > 100 µM | RXF 393 > 100 µM

O=C(c1ccccc1)[C@H]1Nc2cnccc2C2c3ccccc3CC21 (some centres not stated)
inactive: SF-539 15.7 µM | NCI-H460 15.1 µM | UO-31 7.21 µM | SN12C 8.59 µM | SK-MEL-2 11.1 µM | SR 7.43 µM | SW-620 17.9 µM | HL-60 4.63 µM | LOX IMVI 1.57 µM | SNB-75 16.2 µM | A549 21.9 µM | HCC 2998 39.4 µM | OVCAR-3 7.69 µM | 786-0 12.8 µM | SK-MEL-5 3.31 µM | EKVX 19.9 µM | RXF 393 14.8 µM

CC1CCC2c3c([nH]c4ccccc34)C3C(=O)N(c4ccccc4)C(=O)C3C2C1 (configuration not stated)
inactive: SF-539 6.64 µM | NCI-H460 > 250 µM | UO-31 58.3 µM | SN12C > 250 µM | SK-MEL-2 32.5 µM | SR 65 µM | SW-620 > 250 µM | HL-60 > 250 µM | LOX IMVI 42.8 µM | SNB-75 2.65 µM | A549 90.8 µM | HCC 2998 106 µM | OVCAR-3 49.8 µM | 786-0 13.3 µM | SK-MEL-5 > 100 µM | EKVX > 250 µM | RXF 393 12.2 µM

COc1ccc(-n2/c(=N/C(=S)N(C)C)ss/c2=N\C(=S)N(C)C)cc1
inactive: SF-539 52.2 µM | NCI-H460 2.98 µM | UO-31 > 100 µM | SN12C > 100 µM | SK-MEL-2 46.9 µM | SR > 100 µM | SW-620 > 100 µM | HL-60 17 µM | LOX IMVI > 100 µM | SNB-75 22.8 µM | A549 > 100 µM | HCC 2998 > 100 µM | OVCAR-3 19.8 µM | 786-0 32.7 µM | EKVX > 100 µM | RXF 393 29.6 µM

C/C(=N\N(C)C)c1sc(-n2nc(-c3ccccc3)cc2-c2ccccc2)nc1C
inactive: SF-539 > 100 µM | NCI-H460 > 100 µM | UO-31 > 100 µM | SN12C > 100 µM | SK-MEL-2 > 100 µM | SR > 100 µM | SW-620 > 100 µM | HL-60 > 100 µM | LOX IMVI 16.3 µM | SNB-75 15.2 µM | A549 > 100 µM | HCC 2998 > 100 µM | OVCAR-3 47.9 µM | 786-0 > 100 µM | SK-MEL-5 > 100 µM | EKVX 8.22 µM | RXF 393 > 100 µM

Cc1cc(Cl)ccc1NC(=O)C(=O)Cc1nc2ccc(C(=O)c3ccccc3)cc2nc1O
inactive: SF-539 > 100 µM | NCI-H460 96.8 µM | UO-31 78.7 µM | SN12C > 100 µM | SK-MEL-2 > 100 µM | SR 7.4 µM | SW-620 97.9 µM | HL-60 99.5 µM | LOX IMVI > 100 µM | SNB-75 > 100 µM | A549 75.3 µM | HCC 2998 > 100 µM | OVCAR-3 > 100 µM | 786-0 > 100 µM | SK-MEL-5 79.6 µM | EKVX > 100 µM | RXF 393 > 100 µM

O=S(=O)(O)CCSSCCS(=O)(=O)O
inactive: SF-539 > 1000 µM | NCI/ADR-RES > 1000 µM | NCI-H460 > 1000 µM | UO-31 > 1000 µM | SN12C > 1000 µM | SK-MEL-2 > 1000 µM | SR > 1000 µM | SW-620 > 1000 µM | MCF7 > 1000 µM | HL-60 > 1000 µM | LOX IMVI > 1000 µM | SNB-75 > 1000 µM | A549 > 1000 µM | HCC 2998 > 1000 µM | OVCAR-3 > 1000 µM | 786-0 > 1000 µM | EKVX > 1000 µM | RXF 393 > 1000 µM
